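Tested at 5 concentrations; 48 h exposure; 96-well plates; endpoints linearly interpolated, else capped at highest concentration. TGI: total growth inhibition.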
Assays:
Assay in all cases: DTP human tumour cell line panel, 48 h
HCT-116 colon = system: HCT-116 colon
HCC-2998 colon = system: HCC-2998 colon
TK-10 renal = system: TK-10 renal
MALME-3M melanoma = system: MALME-3M melanoma
786-0 renal = system: 786-0 renal
SW-620 colon = system: SW-620 colon
NCI/ADR-RES ovarian = system: NCI/ADR-RES ovarian
OVCAR-3 ovarian = system: OVCAR-3 ovarian
MOLT-4 leukemia = system: MOLT-4 leukemia
MDA-N = system: MDA-N
T-47D breast = system: T-47D breast
OVCAR-8 ovarian = system: OVCAR-8 ovarian
K-562 leukemia = system: K-562 leukemia
SF-268 CNS = system: SF-268 CNS
SNB-75 CNS = system: SNB-75 CNS
A549 NSCLC = system: A549 NSCLC
PC-3 prostate = system: PC-3 prostate
ACHN renal = system: ACHN renal
SNB-19 CNS = system: SNB-19 CNS
UACC-257 melanoma = system: UACC-257 melanoma
UO-31 renal = system: UO-31 renal
SK-OV-3 ovarian = system: SK-OV-3 ovarian
MDA-MB-231 breast = system: MDA-MB-231 breast
OVCAR-5 ovarian = system: OVCAR-5 ovarian
UACC-62 melanoma = system: UACC-62 melanoma
NCI-H460 lung = system: NCI-H460 lung
SK-MEL-28 melanoma = system: SK-MEL-28 melanoma
HT29 colon = system: HT29 colon
SN12C renal = system: SN12C renal
RPMI-8226 leukemia = system: RPMI-8226 leukemia
SR leukemia = system: SR leukemia
COLO 205 colon = system: COLO 205 colon
SF-539 CNS = system: SF-539 CNS
U251 CNS = system: U251 CNS
RXF 393 renal = system: RXF 393 renal
SK-MEL-5 melanoma = system: SK-MEL-5 melanoma
BT-549 breast = system: BT-549 breast
SK-MEL-2 melanoma = system: SK-MEL-2 melanoma
EKVX NSCLC = system: EKVX NSCLC
MCF7 breast = system: MCF7 breast
CAKI-1 renal = system: CAKI-1 renal
HCT-15 colon = system: HCT-15 colon
IGROV1 ovarian = system: IGROV1 ovarian
KM12 colon = system: KM12 colon
CCRF-CEM leukemia = system: CCRF-CEM leukemia
M14 melanoma = system: M14 melanoma
DU-145 prostate = system: DU-145 prostate
A498 renal = system: A498 renal
HOP-62 NSCLC = system: HOP-62 NSCLC
MDA-MB-435 = system: MDA-MB-435

Measured: TGI

CNC(=O)C(C)C1C(=O)/C(=C(O)/C=C\C(C)=C\C(C)C2OC3(C)OC(C=CC34CO4)C2C)C(=O)N1C1CCC(O)C(C)O1 (stereo not given)
> 100 µM: all assays above

Reference: PubChem BioAssay (NCI)
